In PMC8632718, “Novel Assay Platform to Evaluate Intracellular Killing of Mycobacterium tuberculosis: In Vitro and In Vivo Validation” (Frontiers in Immunology, 2021):
Ends that are not written are not given here.

Experiments:
[1] = format: in vitro ADME; conditions: rat liver lysosomal homogenate, 37 °C, LC-MS
Experimental: Next, we examined the enzymatic stability of two peptide conjugates in rat liver lysosomal homogenate (see Supplementary Information 2 for the method description). Peptides were dissolved at 0.025 µg/µl concentration then allowed to react with the lysosomal homogenate. Degradation of the conjugates was fast. […]
1.2 Lysosomal degradation studies
Enzymatic stability of INH-Dhvar4 and INH-Penetratin conjugates were assayed in rat liver lysosomal homogenate (protein content was 16.6 µg/µl). Peptides were dissolved in 0.2 M Sodium acetate buffer (pH=5.03) at 0.025 µg/µl concentration and added to the lysosomal homogenate to reach 1 : 1 protein / peptide ratio (37 °C, 600 rpm vortex) . At different time points (5 min, 30 min, 1 h, 6 h, 24 h) the reaction was stopped by the addition of 5 µl formic acid. Sampled were then measured by LC-MS using a Thermo Scientific Q Exactive Focus Hybrid Quadrupole -Orbitrap Mass Spectrometer (Suppl. Figu re 1). For chromatography, a Wa ters Acquity UPLC BEH C18 (1.7 µ, 150 × 2.1 mm) column was used with a flow rate of 300 µL/min applying a gradient elution from 2% to […]
(1 picture or pasted object on this page, not shown here)

[2] = Analytical RP-HPLC retention time (correlates with overall hydrophobicity); format: physicochemical; parameters: Rt (retention time): unit not given here; conditions: for Rt (retention time): chromatographic measure of hydrophobicity, Waters Acquity UPLC BEH C18 (1.7 µm, 150 × 2.1 mm), flow rate 0.3 ml/min, gradient 2% B 1 min, 2%–100% B 16 min, single peak or first of two 5(6)-Cf isomer peaks; for Rt (retention time), second peak: same column and gradient, second peak due to 5(6)-Cf isomers
Experimental: Purified peptides were analyzed by LC-MS using a Thermo Scientific Q Exactive Focus Hybrid Quadrupole-Orbitrap Mass Spectrometer. For the separation, a Waters Acquity UPLC BEH C18 (1.7 µm, 150 × 2.1 mm) column was used with a flow rate of 0.3 ml/min.
For INH conjugation, representative cell-penetrating (CPP) and antimicrobial peptides (AMP) were chosen. These cationic, amphiphilic peptides are favored in the transportation of various cargos due to their high internalization rate. The used peptide series contains well-known CPPs such as penetratin, transportan, and Tat, frequently studied AMPs such as magainin and buforin, and designed analogs such as Dhvar4, Crot(1-9,38-42), and CM15. Also, a receptor-binding tuftsin analog (OT20), which was reported as a macrophage-targeting peptide, was also applied. […] Mass spectra and RP-HPLC chromatograms are available at https://figshare.com/s/48a023a25068f7658adf, DOI: 10.6084/m9.figshare.16644901. […] To study the internalization rate and intracellular localization, fluorescently labeled analogs were also synthesized. Note that the retention time of Cf-peptide are somewhat higher than unlabeled analogs, and in some cases, two peaks were detected due to the isomeric distribution of 5(6)-Cf molecule.

[3] = tested on: MonoMac-6 cells; format: cell-based, human; conditions: 10 µM Cf-peptide, 2 h, LysoTracker, ImageJ JACoP on merged images
Experimental: Cellular uptake and localization were visualized by confocal laser scanning microscopy. MonoMac-6 cells were seeded 1 day prior to treatment into coverslips (thickness 1, Assistent, Karl Hecht GmbH, Sondheim vor der Rhön, Germany) containing a 24-well plate (Sarstedt, Nümbrecht, Germany) for microscopy studies at a density of 7.5 × 10^4 cells/well, in 1 ml complete DMEM medium. The following day, cells were treated with Cf-peptide at a concentration of 10 µM (diluted in serum-free DMEM medium) for 2 h. Lysosomes were stained by LysoTracker Deep Red (Invitrogen, Waltham, MA, USA) for 30 min, and nuclei were stained by Hoechst 33342 solution (Thermo Scientific, USA). After each step, cells were washed three times with serum-free medium, then cells were fixed by 4% paraformaldehyde for 15 min and mounted to microscopy slides with Mowiol 4-88 (Sigma, Budapest, Hungary). Imaging was performed by a Zeiss LSM-710 system (Carl Zeiss microscopy GmbH, Oberkochen, Germany) with a ×40/1.4 Plan-Apochromat oil immersion objective using lasers with the parameters: Cf peptides λex = 488 nm, λem = 541 nm, nuclei λex = 405 nm, λem = 467 nm (Hoechst 33342), lysosomes λex = 633 nm, λem = 720 nm (LysoTrackerTM Deep Red) or λex = 577 nm, λem = 590 nm (LysoTrackerTM Red DND-99) were used. Zeiss ZEN lite software (Carl Zeiss Microscopy GmbH, Jena, Germany) was used for image processing.
Parallel with flow cytometry measurements, confocal laser scanning microscopy images were also captured in order to assess qualitative information on intracellular localization. LysoTrackerTM Deep Red was used for lysosome and Hoechst 33342 for nuclear staining to distinguish subcellular localization of the Cf-peptide. […] Colocalization of Cf-peptide and LysoTracker may be subjectively identified by the cooccurrence, the simple spatial overlap which combined the contribution of both signals (green and red) when the images of each signal are superimposed (merged, see Supplementary Figure S3 ).
microscopy at the 10 µM Cf-peptide concentration (based on flow cytometry profile), and MonoMac6 cells were incubated for 2 hrs.
the visible differences among localization profiles of the Cf-peptides, we applied greyscale analysis of
the images and the evaluation was carried out on a representative peptide set.
were studied and the treatment, the staining and fixation process were carefully optimized to assess
Laser intensity values were identical in case of all Cf-peptides. ZEN 3.0 blue lite software
was used for image processing and grey scale values were extracted using NIH ImageJ software’s Plot

[4] = tested on: CALU-1 monolayer / EBC-1 cells; format: in vitro ADME, human; conditions: Transwell, 0.4 µm polycarbonate, Cf-peptide apical 10 and 20 µM, 45 min, apical to basolateral; EBC-1 fluorescence read-out
Experimental: EBC-1 lung squamous carcinoma and CALU-1 human lung epidermoid carcinoma were seeded on 24-well plates with Transwell inserts (TW) [Nunc, Sigma polycarbonate microporous membrane, 0.4 µm pore size (growth area 0.412 cm^2)]. Before use, TW inserts were incubated with ICM. On day 1, 300 μl of CALU-1 suspension in complete DMEM medium (8.0 × 10^5 cells) was pipetted onto the surface of the TW apical chamber and 500 μl complete DMEM medium was added to the basolateral side. In order to avoid nonattached cells, after incubation at 37°C for 5–6 h, the apical medium was removed and replaced with fresh complete DMEM medium. […] On day 5, the medium was changed, then Cf-peptide was added to the CALU-1-containing apical side at 10 and 20 µM concentrations, and the system was incubated for 45 min or 3 h (37°C, 5% CO2). The TW chamber was removed after incubation. EBC-1 cells were studied using flow cytometry (BD LSR II).
EBC-1 cells were treated without the presence of the TW inserts as controls (on day 4 prior to treatment, EBC-1 cells (10^5 cells/well in complete DMEM). […]
Figure 7 The penetration ability of Cf-peptides was determined on Transwell bronchial interface, and the penetration rates were quantified by flow cytometry. […] The confluence of CALU-1 monolayer was monitored with CellTracker Green, and after development of stable green fluorescence, cells were imaged in situ. […]

Molecule | Rt (retention time) [2] | other results
CC[C@H](C)[C@H](NC(=O)[C@H](CCCCN)NC(=O)[C@@H](NC(=O)[C@H](CCC(N)=O)NC(=O)[C@H](CCCNC(=N)N)NC(=O)CNNC(=O)c1ccncc1)[C@@H](C)CC)C(=O)N[C@@H](Cc1c[nH]c2ccccc12)C(=O)N[C@@H](Cc1ccccc1)C(=O)N[C@@H](CCC(N)=O)C(=O)N[C@@H](CC(N)=O)C(=O)N[C@@H](CCCNC(=N)N)C(=O)N[C@@H](CCCNC(=N)N)C(=O)N[C@@H](CCSC)C(=O)N[C@@H](CCCCN)C(=O)N[C@@H](Cc1c[nH]c2ccccc12)C(=O)N[C@@H](CCCCN)C(=O)N[C@@H](CCCCN)C(N)=O [INH-Penetratin] |  | peaks of the intact conjugates after 30 min of incubation ([1]; 0.2 M sodium acetate buffer pH 5.03, 0.025 µg/µl, 1:1 protein/peptide ratio): almost disappeared; most stable fragment (main peak after 24 h of incubation) ([1]; pH 5.03, 0.025 µg/µl): tetrapeptide (RQIK) with INH
TKPKGTKPKGTKPKGTKPKG-NH2 [OT20, reference compound] | 1.6 | 
Cf-KWKLFKKIGAVLKVL [Cf-CM15, 5(6)-carboxyfluorescein-labeled CM15] | 9.6 | Rt (retention time), second peak [2]: 9.7; Pearson's coefficient of colocalization with lysosomal staining [3]: 0.358
Cf-YGRKKRRQRRR [Cf-Tat, 5(6)-carboxyfluorescein-labeled Tat] | 4.6 | Rt (retention time), second peak [2]: 5.0
CC[C@H](C)[C@H](NC(=O)CN)C(=O)NCC(=O)N[C@@H](C)C(=O)N[C@H](C(=O)N[C@@H](CC(C)C)C(=O)N[C@@H](CCCCN)C(=O)N[C@H](C(=O)N[C@@H](CC(C)C)C(=O)N[C@H](C(=O)N[C@H](C(=O)NCC(=O)N[C@@H](CC(C)C)C(=O)N1CCC[C@H]1C(=O)N[C@@H](C)C(=O)N[C@@H](CC(C)C)C(=O)N[C@H](C(=O)N[C@@H](CO)C(=O)N[C@@H](Cc1c[nH]c2ccccc12)C(=O)N[C@H](C(=O)N[C@@H](CCCCN)C(=O)N[C@@H](CCCNC(=N)N)C(=O)N[C@@H](CCCCN)C(=O)N[C@@H](CCCNC(=N)N)C(=O)N[C@@H](CCC(N)=O)C(=O)N[C@@H](CCC(N)=O)C(N)=O)[C@@H](C)CC)[C@@H](C)CC)[C@@H](C)O)[C@@H](C)O)C(C)C)C(C)C [Melittin, reference compound] | 10.6 | 
CC[C@H](C)[C@H](NC(=O)[C@H](CCCCN)NC(=O)[C@H](CCCCN)NC(=O)[C@H](C)NC(=O)[C@H](CC(C)C)NC(=O)[C@H](C)NC(=O)[C@H](C)NC(=O)[C@H](CC(C)C)NC(=O)[C@H](C)NC(=O)[C@H](CCCCN)NC(=O)[C@H](CC(C)C)NC(=O)[C@H](CC(N)=O)NC(=O)[C@@H](NC(=O)[C@H](CCCCN)NC(=O)CNC(=O)[C@H](CC(C)C)NC(=O)[C@H](CC(C)C)NC(=O)[C@H](Cc1ccc(O)cc1)NC(=O)CNC(=O)[C@H](C)N)[C@@H](C)CC)C(=O)N[C@@H](CC(C)C)C(N)=O [reference compound] | 10.6 | 
GIGKFLHSAKKFGKAFVGEIMNS-NH2 [Magainin, reference compound] | 8.2 | 
KWKLFKKIGAVLKVL-NH2 [CM15, reference compound] | 8.4 | 
Cf-RAGLQFPVGRVHRLLRK [Cf-Buforin, 5(6)-carboxyfluorescein-labeled buforin] | 7.7 | Rt (retention time), second peak [2]: 7.8
Cf-GIGAVLKVLTTGLPALISWIKRKRQQ [Cf-Melittin, 5(6)-carboxyfluorescein-labeled melittin] | 12.2 | 
N=C(N)NCCC[C@H](NC(=O)[C@H](CCCNC(=N)N)NC(=O)[C@H](CCCNC(=N)N)NC(=O)[C@H](CCC(N)=O)NC(=O)[C@H](CCCNC(=N)N)NC(=O)[C@H](CCCNC(=N)N)NC(=O)[C@H](CCCCN)NC(=O)[C@H](CCCCN)NC(=O)[C@H](CCCNC(=N)N)NC(=O)CNC(=O)[C@@H](N)Cc1ccc(O)cc1)C(N)=O [Tat, reference compound] | 0.9 | 
Cf-AGYLLGKINLKALAALAKKIL [Cf-Penetratin, 5(6)-carboxyfluorescein-labeled penetratin] |  | Pearson's coefficient of colocalization with lysosomal staining [3]: 0.490
Cf-YKQCHKKGGKKGSG [Cf-Crot(1-9,38-42), 5(6)-carboxyfluorescein-labeled Crot(1-9,38-42)] | 5.5 | Rt (retention time), second peak [2]: 5.8
Cf-TKPKGTKPKGTKPKGTKPKG [Cf-OT20, 5(6)-carboxyfluorescein-labeled OT20] | 4.9 | Rt (retention time), second peak [2]: 5.0
Cf-GIGKFLHSAKKFGKAFVGEIMNS [Cf-Transportan, 5(6)-carboxyfluorescein-labeled transportan] |  | Pearson's coefficient of colocalization with lysosomal staining [3]: 0.823
RAGLQFPVGRVHRLLRK-NH2 [Buforin, reference compound] | 6.6 | 
CC[C@H](C)[C@H](NC(=O)[C@H](CCCCN)NC(=O)[C@@H](NC(=O)[C@H](CCC(N)=O)NC(=O)[C@@H](N)CCCNC(=N)N)[C@@H](C)CC)C(=O)N[C@@H](Cc1c[nH]c2ccccc12)C(=O)N[C@@H](Cc1ccccc1)C(=O)N[C@@H](CCC(N)=O)C(=O)N[C@@H](CC(N)=O)C(=O)N[C@@H](CCCNC(=N)N)C(=O)N[C@@H](CCCNC(=N)N)C(=O)N[C@@H](CCSC)C(=O)N[C@@H](CCCCN)C(=O)N[C@@H](Cc1c[nH]c2ccccc12)C(=O)N[C@@H](CCCCN)C(=O)N[C@@H](CCCCN)C(N)=O [Penetratin, reference compound] | 6.1 | penetration through CALU-1 monolayer and internalization into EBC-1 cells [4]: higher internalization rates
YKQCHKKGGKKGSG-NH2 [Crot(1-9,38-42), reference compound] | 0.8 | 
